Experimental data reported in patent US20200284781A1, “TEST METHOD OF COMBINED TOXICITY FOR CH[…] BUTACHLOR” (priority 2019, published 2020).
≈ marks a conversion by molar mass, not a printed value.

Tests used:
[1] = Combined toxicity of chlorpyrifos and butachlor to Japanese medaka larvae; conditions: in vivo
Procedure: (§1) F. Combined toxicity test: The toxicity test is performed on zebrafish larvae and Japanese medaka larvae, the test procedure is as follows:
b. Japanese medaka: A single pesticide is used to measure the LC50 value of Japanese medaka for 96 hours, mixing chlorpyrifos and butachlor to form binary mixed systems with different ratios of 1:4, 2:3, 1:1, 3:2 and 4:1, according to the pre-experiment results, 5-7 different concentrations are set at equal logarithmic intervals to determine the combined toxicity of the mixed system to Japanese medaka, the method is the same as the determination of single toxicity, the total concentration of the binary mixture is the sum of the concentrations of the two components;
b. Japanese medaka: A single pesticide is used to measure the LC50 value of Japanese medaka for 96 hours, mixing chlorpyrifos and butachlor to form binary mixed systems with different ratios of 1:4, 2:3, 1:1, 3:2 and 4:1, according to the pre-experiment results, 5-7 different concentrations with a geometrical ratio are set at equal logarithmic intervals to determine the combined toxicity of the mixed system to Japanese medaka the method is the same as the determination, of single toxicity, the total concentration of the binary mixture is the sum of the concentrations of the two components;
(§2) H. Data processing: Calculating the LC50 value of pesticides on larvae and their 95% confidence limits by probit analysis based on the number and time of dead fish larvae, and using 95% confidence limit of LC50 as the criterion to determine whether the toxicity difference of different drugs is significant, LC50≤0.1 mg a.i. L^−1, is hypertoxic; 0.1<LC50≤1.0 mg a.i. L^−1, is high toxicity; 1.0<LC50≤10.0 mg a.i. L^−1, is medium toxicity; LC50>10.0 mg a.i. L^−1, is low toxicity, the maximum allowable concentration of MPC employs 100 as the protection factor, the formula is: MPC=96 h-LC50/100, to get the maximum allowable concentration of a poison.

[2] = Single toxicity of chlorpyrifos and butachlor to Japanese medaka larvae; conditions: in vivo, other: immersion in test solution (waterborne exposure), read-out: LC50 (95% CI)
Procedure: (§3) H. Data processing: Calculating the LC50 value of pesticides on larvae and their 95% confidence limits by probit analysis based on the number and time of dead fish larvae, and using 95% confidence limit of LC50 as the criterion to determine whether the toxicity difference of different pesticides is significant, LC50≤0.1 mg a.i. L^−1, is hypertoxic; 0.1<LC50≤1.0 mg a.i. L^−1, is high toxicity; 1.0<LC50≤[…] a.i. L^−1, is medium toxicity; LC50>10.0 mg a.i. L^−1 is low toxicity. The maximum allowable concentration of MPC employs 100 as the protection factor, the formula is: MPC=96 h-LC50/100, to get the maximum allowable concentration of a poison.
as §2
(§4) Wherein the larvae in the migratory period in step E refer to fish 120 h after fertilization of eggs, for improving the accuracy of the test.

[3] = Single toxicity of chlorpyrifos and butachlor to zebrafish larvae; conditions: in vivo, other: immersion in test solution (waterborne exposure), read-out: LC50 (95% CI)
Procedure: as §3, §2, §4

zebrafish embryos = test: Single toxicity of chlorpyrifos and butachlor to zebrafish embryos; assay type: in vivo
Procedure: (§5) D. Toxicity of pesticides to zebrafish embryos: On the basis of clearing the effective concentration range of pesticides in pre-tests, diluting the pesticide stock solution with standard dilution water to 5-7 concentrations with a geometrical ratio, and using a 24 well cell culture dish for exposure apparatus, the volume of each well is 3 mL, 20 wells are the same experimental concentration, and the remaining 4 wells are blank controls; during the experiment, of test solution and 1 randomly selected 3 hpf (hourpost-fertilization) normal fertilized embryo at the embryo shield stage were put into every well, set up 3 replicates at each concentration, every culture dish as a replicate, and incubating in a multifunctional incubator at 26±1° C. with a photoperiod of 14 h (light): 10 h (dark);
(§6) Preferably, in the step D, the test solution needs to be replaced every 24 h, observing and microscopical observing the CK group and the exposed group every 24 h, recording the number of embryos with normal development and malformations, and calculating the number of embryos hatched and larvae malformations, the experiment lasts 96 hours.
as §5, with “24-well” for “24 well”, “poisoning” for “exposure”, “experiment, 2 mL” for “experiment,”, “C. V:” for “C.”
as §2
(§7) Wherein in the step D, the test solution needs to be replaced every 24 h, observing and microscopical observing the CK group and the exposed group every 24 h, recording the number of embryos with normal development and malformations, and calculating the number of embryos hatched and larvae malformations, the experiment lasts 96 hours, for structural analysis.

[4] = as above; assay type: in vivo; conditions: in vivo, other: immersion in test solution (waterborne exposure), read-out: LC50 (95% CI)
Procedure: as §5, §6
as §5, with “24-well” for “24 well”, “poisoning” for “exposure”, “experiment, 2 mL” for “experiment,”, “C. V:” for “C.”
as §2, §7

[5] = Combined toxicity of chlorpyrifos and butachlor to zebrafish larvae; conditions: in vivo, read-out: LC50 (95% CI) of the component in the mixture
Procedure: as §1
a. Zebrafish larvae: The LC50 value of zebrafish larvae with a single pesticide for 96 h is a toxic unit, and 5-7 different concentrations with a geometrical ratio, test method and calculation of LC50 value of each exposure time are the same as 1.4.2;
as §2

SMILES: CCOP(=S)(OCC)Oc1nc(Cl)c(Cl)cc1Cl [Chlorpyrifos, chlorpyrifos]
- LC50 at 24 h ([1]; Japanese medaka larvae, chlorpyrifos:butachlor ratio 4:1, 24 h, read-out: LC50 (95% CI) of the component in the mixture): 0.8 µg/mL
- LC50 at 96 h ([1]; Japanese medaka larvae, chlorpyrifos:butachlor ratio 4:1, 96 h, read-out: LC50 (95% CI) of the component in the mixture): 0.14 µg/mL
- LC50 at 24 h ([1]; other: immersion in test solution (waterborne exposure), Japanese medaka larvae, chlorpyrifos:butachlor ratio 1:1, 24 h, read-out: LC50 (95%) CI of the component in the mixture): 1.53 µg/mL
- LC50 at 48 h ([1]; other: immersion in test solution (waterborne exposure), Japanese medaka larvae, chlorpyrifos:butachlor ratio 1:1, 48 h, read-out: LC50 (95%) CI of the component in the mixture): 1.22 µg/mL
- LC50 at 72 h ([1]; other: immersion in test solution (waterborne exposure), Japanese medaka larvae, chlorpyrifos:butachlor ratio 1:1, 72 h, read-out: LC50 (95%) CI of the component in the mixture): 0.93 µg/mL
- LC50 at 96 h ([1]; other: immersion in test solution (waterborne exposure), Japanese medaka larvae, chlorpyrifos:butachlor ratio 1:1, 96 h, read-out: LC50 (95%) CI of the component in the mixture): 0.81 µg/mL
- LC50 at 48 h ([1]; other: immersion in test solution (waterborne exposure), Japanese medaka larvae, chlorpyrifos:butachlor ratio 4:1, 48 h, read-out: LC50 (95% CI) of the component in the mixture): 0.61 µg/mL
- LC50 at 72 h ([1]; other: immersion in test solution (waterborne exposure), Japanese medaka larvae, chlorpyrifos:butachlor ratio 4:1, 72 h, read-out: LC50 (95% CI) of the component in the mixture): 0.43 µg/mL
- LC50 at 24 h ([1]; other: immersion in test solution (waterborne exposure), chlorpyrifos:butachlor ratio 1:4, 24 h, read-out: LC50 (95% CI) of the component in the mixture): 0.57 µg/mL
- LC50 at 48 h ([1]; other: immersion in test solution (waterborne exposure), chlorpyrifos:butachlor ratio 1:4, 48 h, read-out: LC50 (95% CI) of the component in the mixture): 0.33 µg/mL
- LC50 at 72 h ([1]; other: immersion in test solution (waterborne exposure), chlorpyrifos:butachlor ratio 1:4, 72 h, read-out: LC50 (95% CI) of the component in the mixture): 0.28 µg/mL
- LC50 at 96 h ([1]; other: immersion in test solution (waterborne exposure), chlorpyrifos:butachlor ratio 1:4, 96 h, read-out: LC50 (95% CI) of the component in the mixture): 0.22 µg/mL
- LC50 at 24 h ([1]; other: immersion in test solution (waterborne exposure), chlorpyrifos:butachlor ratio 2:3, 24 h, read-out: LC50 (95% CI) of the component in the mixture): 1.52 µg/mL
- LC50 at 48 h ([1]; other: immersion in test solution (waterborne exposure), chlorpyrifos:butachlor ratio 2:3, 48 h, read-out: LC50 (95% CI) of the component in the mixture): 0.44 µg/mL
- LC50 at 72 h ([1]; other: immersion in test solution (waterborne exposure), chlorpyrifos:butachlor ratio 2:3, 72 h, read-out: LC50 (95% CI) of the component in the mixture): 0.28 µg/mL
- LC50 at 96 h ([1]; other: immersion in test solution (waterborne exposure), chlorpyrifos:butachlor ratio 2:3, 96 h, read-out: LC50 (95% CI) of the component in the mixture): 0.23 µg/mL
- LC50 at 24 h ([1]; other: immersion in test solution (waterborne exposure), chlorpyrifos:butachlor ratio 3:2, 24 h, read-out: LC50 (95% CI) of the component in the mixture): 2.23 µg/mL
- LC50 at 48 h ([1]; other: immersion in test solution (waterborne exposure), chlorpyrifos:butachlor ratio 3:2, 48 h, read-out: LC50 (95% CI) of the component in the mixture): 1.94 µg/mL
- LC50 at 72 h ([1]; other: immersion in test solution (waterborne exposure), chlorpyrifos:butachlor ratio 3:2, 72 h, read-out: LC50 (95% CI) of the component in the mixture): 1.31 µg/mL
- LC50 at 96 h ([1]; other: immersion in test solution (waterborne exposure), chlorpyrifos:butachlor ratio 3:2, 96 h, read-out: LC50 (95% CI) of the component in the mixture): 0.99 µg/mL
- LC50 at 24 h ([2]; exposure time 24 h): 0.75 µg/mL (≈ 2.14 µM)
- LC50 at 48 h ([2]; exposure time 48 h): 0.4 µg/mL (≈ 1.14 µM)
- LC50 at 72 h ([2]; exposure time 72 h): 0.35 µg/mL (≈ 0.998 µM)
- LC50 at 96 h ([2]; exposure time 96 h): 0.24 µg/mL (≈ 0.685 µM)
- LC50 at 24 h ([3]; exposure time 24 h): 0.67 µg/mL (≈ 1.91 µM)
- LC50 at 48 h ([3]; exposure time 48 h): 0.39 µg/mL (≈ 1.11 µM)
- LC50 at 72 h ([3]; exposure time 72 h): 0.34 µg/mL (≈ 0.97 µM)
- LC50 at 96 h ([3]; exposure time 96 h): 0.27 µg/mL (≈ 0.77 µM)
- effects of exposure on zebrafish embryo development (zebrafish embryos): egg coagulation, pericardial edema, yolk sac edema, and spinal curvature
- LC50 at 24 h ([4]; exposure time 24 h): 170 µg/mL (≈ 485 µM)
- LC50 at 48 h ([4]; exposure time 48 h): 120 µg/mL (≈ 341 µM)
- LC50 at 72 h ([4]; exposure time 72 h): 63.4 µg/mL (≈ 181 µM)
- LC50 at 96 h ([4]; exposure time 96 h): 13 µg/mL (≈ 37.2 µM)
- LC50 at 24 h ([5]; equitoxic ratio): 0.55 µg/mL
- LC50 at 48 h ([5]; equitoxic ratio): 0.43 µg/mL
- LC50 at 72 h ([5]; equitoxic ratio): 0.27 µg/mL
- LC50 at 96 h ([5]; equitoxic ratio): 0.16 µg/mL
- LC50 at 24 h ([5]; equivalent concentration (1:1)): 0.18 µg/mL
- LC50 at 48 h ([5]; equivalent concentration (1:1)): 0.16 µg/mL
- LC50 at 72 h ([5]; equivalent concentration (1:1)): 0.14 µg/mL
- LC50 at 96 h ([5]; equivalent concentration (1:1)): 0.11 µg/mL
